The values below come from ChEMBL document CHEMBL3217689, “Synthesis and antiplasmodial evaluation of aziridine(iso)quinoline hybrids and their ring-opening products” (Medchemcomm, 2013).

In data set [1] the test system is Plasmodium falciparum. Nature of the data set: Antiplasmodial activity against chloroquine-sensitive Plasmodium falciparum NF54 by LDH assay. Type of data set: functional, organism-based.
Data set [2] in a line: Resistance index, ratio of IC50 for chloroquine-resistant Plasmodium falciparum Dd2 to IC50 for chloroquine-sensitive Plasmodium falciparum NF54.
For data set [3], the system named is Plasmodium falciparum. Nature of the data set: Antiplasmodial activity against chloroquine-resistant Plasmodium falciparum Dd2 by LDH assay. It counts as functional, organism-based.
A further data set has as its system CHO. The data set is described as follows: Cytotoxicity against CHO cells by MTT assay. It counts as cell-based. The note with it: Cricetulus griseus.
Data set [4] can be described thus: Selectivity index, ratio of IC50 for CHO cells to IC50 for chloroquine-sensitive Plasmodium falciparum NF54. Type of data set: toxicity, cell-based. To be noted: hamster; read-out: Ratio IC50.

With `OCC(COc1cccc2cnccc12)NCc1ccccc1` (configuration not stated), the IC50 amounted to 6.81 µM in the data set on Plasmodium falciparum [1], 17.6 µM in the data set on Plasmodium falciparum [3] and 148 µM with CHO. In addition, the “Ratio IC50” value in data set [2] is recorded as 2.58. Also, the selectivity ratio in data set [4] came to 21.8.

Compound `Cn1nc(C(F)(F)F)cc1OCC1CN1Cc1cnc2ccccc2c1` (configuration not stated) returned a half-inhibitory concentration (IC50) with Plasmodium falciparum [1] greater than 27.6 µM.

Compound `Cn1nc(C(F)(F)F)cc1OCC1CN1Cc1cc2ccccc2nc1Cl` (configuration not stated) returned an IC50 with Plasmodium falciparum [1] greater than 25.2 µM.

In turn, `Cn1nc(C(F)(F)F)cc1OCC1CN1Cc1ccnc2ccccc12` (configuration not stated) yielded an IC50 in the data set with Plasmodium falciparum [1] of 9.66 µM.

`Cn1nc(C(F)(F)F)cc1OCC(CO)NCc1cnc2ccccc2c1` (configuration not stated): the half-maximal inhibitory concentration (IC50) in the data set on Plasmodium falciparum [1] was 4.73 µM; in the data set with Plasmodium falciparum [3] it was 15.2 µM; in the data set with CHO, 181 µM. The selectivity ratio in data set [4] was 38.3.

In the data set on Plasmodium falciparum [1], `Cn1nc(C(F)(F)F)cc1OCC(CO)NCc1cc2ccccc2nc1Cl` (configuration not stated) registered an IC50 greater than 24.1 µM.

`COCC(COc1cc(C(F)(F)F)nn1C)NCc1cc2ccccc2nc1Cl` (configuration not stated) gave a half-inhibitory concentration (IC50) in the data set on Plasmodium falciparum [1] of 17 µM.

In the case of `COCC(COc1cc(C(F)(F)F)nn1C)NCc1cc2ccccc2nc1OC` (configuration not stated), the IC50 with Plasmodium falciparum [1] is greater than 23.6 µM.

`O=c1nc(C(F)(F)F)ccn1CC1CN1Cc1cnc2ccccc2c1` (configuration not stated): in the data set on Plasmodium falciparum [1], the half-maximal inhibitory concentration (IC50) was greater than 27.8 µM.

For `O=c1nc(C(F)(F)F)ccn1CC1CN1Cc1cc2ccccc2nc1Cl` (configuration not stated), the IC50 with Plasmodium falciparum [1] came to 9.12 µM.

In turn, `O=c1c(Cl)c(Cl)cnn1CC1CN1Cc1cnc2ccccc2c1` (configuration not stated) came in with an IC50 in the data set on Plasmodium falciparum [1] of 12.7 µM.

Consider `O=c1c(Cl)c(Cl)cnn1CC1CN1Cc1cc2ccccc2nc1Cl` (configuration not stated), for which half-maximal inhibition with Plasmodium falciparum [1] (IC50) required 22.8 µM.

Regarding `O=c1c(Cl)c(Cl)cnn1CC1CN1Cc1ccnc2ccccc12` (configuration not stated), the IC50 in the data set with Plasmodium falciparum [1] was determined as 26.9 µM.

Regarding `O=c1c(Cl)c(Cl)cnn1CC(CO)NCc1cnc2ccccc2c1` (configuration not stated), in the data set on Plasmodium falciparum [1], the IC50 was 15.3 µM.

With `O=c1c(Cl)c(Cl)cnn1CC(CO)NCc1cc2ccccc2nc1Cl` (configuration not stated), the IC50 in the data set on Plasmodium falciparum [1] worked out at 15 µM.

The compound `O=c1c(Cl)c(Cl)cnn1CC(CO)NCc1ccnc2ccccc12` (configuration not stated) registered an IC50 in the data set with Plasmodium falciparum [1] of 24.5 µM.

`COCC(Cn1ncc(Cl)c(Cl)c1=O)NCc1ccnc2ccccc12` (configuration not stated) had an IC50 in the data set on Plasmodium falciparum [1] of 14.5 µM.

`c1ccc(CN2CC2COc2cccc3cnccc23)cc1` (configuration not stated) displayed an IC50 in the data set on Plasmodium falciparum [1] of 9.99 µM.

As to `Clc1ccc(CN2CC2COc2cccc3cnccc23)cc1` (configuration not stated), the IC50 in the data set on Plasmodium falciparum [1] was greater than 30.8 µM.

In the data set with Plasmodium falciparum [1], `Fc1ccc(CN2CC2COc2cccc3cnccc23)cc1` (configuration not stated) gave an IC50 of 15.9 µM.

Consider `Clc1ccccc1CN1CC1COc1cccc2cnccc12` (configuration not stated), for which the IC50 in the data set on Plasmodium falciparum [1] was found to be 12.9 µM.

In the data set on Plasmodium falciparum [1], `COc1ccc(CN2CC2COc2cccc3cnccc23)cc1` (configuration not stated) registered an IC50 of 9.99 µM.

As to `Clc1ccc(CN2CC2COc2cccc3cnccc23)c(Cl)c1` (configuration not stated), the half-inhibitory concentration (IC50) with Plasmodium falciparum [1] was greater than 27.8 µM.

In the data set on Plasmodium falciparum [1], `FC(F)(F)c1ccc(CN2CC2COc2cccc3cnccc23)cc1` (configuration not stated) had an IC50 greater than 27.9 µM.

As to `COc1ccccc1CN1CC1COc1cccc2cnccc12` (configuration not stated), the IC50 with Plasmodium falciparum [1] was 5.29 µM; in the data set with Plasmodium falciparum [3], 8.46 µM; in the data set with CHO, 52.3 µM. In addition, in data set [2], the “Ratio IC50” value is recorded as 1.6. For the same compound, the selectivity ratio in data set [4] came to 9.88.

`OCC(COc1cccc2cnccc12)NCc1ccc(Cl)cc1` (configuration not stated) showed an IC50 in the data set with Plasmodium falciparum [1] of 22.8 µM.

In turn, `OCC(COc1cccc2cnccc12)NCc1ccc(Cl)cc1Cl` (configuration not stated) displayed an IC50 in the data set with Plasmodium falciparum [1] greater than 26.5 µM.

With `OCC(COc1cccc2cnccc12)NCc1ccc(C(F)(F)F)cc1` (configuration not stated), half-maximal inhibition in the data set on Plasmodium falciparum [1] (IC50) was put at 11.7 µM.

The compound `COCC(COc1cccc2cnccc12)NCc1ccccc1` (configuration not stated) had an IC50 with Plasmodium falciparum [1] of 13 µM.

In the case of `COCC(COc1cccc2cnccc12)NCc1ccc(F)cc1` (configuration not stated), the IC50 in the data set with Plasmodium falciparum [1] was 24.4 µM.

`COCC(COc1cccc2cnccc12)NCc1ccccc1Cl` (configuration not stated): in the data set with Plasmodium falciparum [1], half-maximal inhibition (IC50) required 16.5 µM.

`COCC(COc1cccc2cnccc12)NCc1ccc(OC)cc1` (configuration not stated) registered an IC50 in the data set on Plasmodium falciparum [1] greater than 28.4 µM.

`COCC(COc1cccc2cnccc12)NCc1ccccc1OC` (configuration not stated) had an IC50 with Plasmodium falciparum [1] greater than 28.4 µM.

On to `c1ccc(CNC(CNc2ccccc2)COc2cccc3cnccc23)cc1` (configuration not stated), for which the concentration for half-maximal inhibition (IC50) with Plasmodium falciparum [1] amounted to 4.69 µM; in the data set with Plasmodium falciparum [3], 8.21 µM; in the data set with CHO, 237 µM. Besides, in data set [2], the “Ratio IC50” value was determined as 1.75. In data set [4], the selectivity ratio was 50.5.

`Clc1ccc(CNC(CNc2ccccc2)COc2cccc3cnccc23)cc1` (configuration not stated): half-maximal inhibition in the data set on Plasmodium falciparum [1] (IC50) was put at 10.5 µM.

For `[Br-].c1ccc(CN2CC2COc2cccc3c[n+](Cc4ccccc4)ccc23)cc1` (configuration not stated), the figures for the IC50 with Plasmodium falciparum [1], with Plasmodium falciparum [3] and with CHO were 1.09 µM, 1.02 µM and 51.8 µM, respectively. For the same compound, the “Ratio IC50” value in data set [2] worked out at 0.94. The selectivity ratio in data set [4] was 47.7.

As to `BrC(COc1cccc2c[n+](Cc3ccccc3)ccc12)CN(Cc1ccccc1)Cc1ccccc1.[Br-]` (configuration not stated), the concentration for half-maximal inhibition (IC50) in the data set with Plasmodium falciparum [1] worked out at 0.22 µM; with Plasmodium falciparum [3], 1.17 µM; with CHO, 45.1 µM. In data set [2], the “Ratio IC50” value is reported as 5.32. In addition, in data set [4], the selectivity ratio is 205.

For `C[C@H]1[C@H](OC(=O)CCC(=O)O)O[C@@H]2O[C@@]3(C)CC[C@H]4[C@H](C)CC[C@@H]1[C@@]24OO3` [ARTESUNATE], the IC50 with Plasmodium falciparum [1] worked out at 0.02 µM.

Compound `CC[C@H]1CN2CCc3cc(OC)c(OC)cc3[C@@H]2C[C@@H]1C[C@H]1NCCc2cc(OC)c(OC)cc21` [EMETINE] showed an IC50 with CHO of 0.4 µM.
